Measurements reported in US20240067632A1, “WEE1 Degrading Compounds and Uses Thereof” (Bristol-Myers Squibb Company, priority 2022, published 2024).
Read-outs that look alike come from different tables or passages of the source.

Tests used:
WEE1 = molecular target: T1, WEE1 (Homo sapiens, UniProt P30291+Q96SW2); assay: WEE1-ePL degradation assay (LentiX-WEE1-ePL-GSPT1-ND cells, InCELL Hunter luminescence, 4 h); format: cell-based; conditions: 293T-LentiX WEE1-ePL cells; for DC50: read-out: 293T-LentiX WEE1-ePL Degradation 4 hr (EC50)
T1 construct: C-terminal ePL-tagged (DiscoverX, Fremont, CA) full-length WEE1 expression construct; expressed in transfected cells; host or cells: LentiX-HEK293T (Invitrogen), lentiviral transduction; co-expressing GSPT1-GN (G576N, lacking the first 158 amino acids)
Outline: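 First, compounds were pre-plated as 10-point, 3-fold dilutions (top 1 uM or 10 uM) with DMSO control; next, WEE1-ePL-expressing HEK293T cells were added and held 4 h at 37 °C; finally, InCELL Hunter reagent was applied for 30 min before luminescence reading. A 4PL fit gave EC50 and Ymin.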

MKN45 cells = assay: MKN45 cell proliferation assay (Cell-Titer-Glo, 120 h); format: cell-based; conditions: for EC50: Homo sapiens, MKN-45, 120 h, Cell-Titer-Glo, read-out: MKN45 Cell Prolif. 120 hr (EC50); for MKN45 Cell Prolif. 120 hr (Ymin-Obs): minimal percent of DMSO control observed in the concentrations tested
Outline: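 Cells seeded at 400/well onto pre-printed 10-point half-log dilutions (top 1 or 10 uM, 0.1% DMSO final), in triplicate, and grown 120 h at 37 C. Viability by Cell-Titer-Glo luminescence, blank-subtracted and normalised to DMSO; EC50 from four-parameter logistic fit, with observed minimal % of control recorded as Ymin-obs.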

[1] = lower limit of the fit (0 = luciferase inhibitor, Ymax = DMSO control)
[2] = lower limit of the fit (Ymin=0 luciferase inhibitor, Ymax DMSO control)

Row | SMILES | 293T-LentiX WEE1-ePL Degradation 4 hr (Ymin) (WEE1; [1]) | DC50 (WEE1) [µM] | EC50 (MKN45 cells; growth inhibition) [µM] | 293T-LentiX WEE1-ePL Degradation 4 hr (Ymin) (WEE1; [2]) | EC50 (MKN45 cells) [µM] | MKN45 Cell Prolif. 120 hr (Ymin-Obs) (MKN45 cells)
1 | N#Cc1ccc(CN2CC[C@H](Oc3ccc4c(c3)CN(C3CCC(=O)NC3=O)C4=O)C2)nc1 (stereo partly drawn) [6-{[(3S)-3-{[2-(2,6-dioxopiperidin-3-yl)-1-oxo-2,3-dihydro-1H-isoindol-5-yl]oxy}pyrrolidin-1-yl]methyl}pyridine-3-carbonitrile] | 64 | 0.061 | > 10 |  |  | 69.48
2 | N#Cc1ncc2cc(CN3CC[C@H](Oc4ccc5c(c4)CN(C4CCC(=O)NC4=O)C5=O)C3)ccc2n1 (stereo partly drawn) [6-{[(3S)-3-{[2-(2,6-dioxopiperidin-3-yl)-1-oxo-2,3-dihydro-1H-isoindol-5-yl]oxy}pyrrolidin-1-yl]methyl}quinazoline-2-carbonitrile] | 35 | 0.0121 | 0.073 |  |  | 17.27
3 | N#Cc1ccc2cc(CN3CC[C@H](Oc4ccc5c(c4F)CN(C4CCC(=O)NC4=O)C5=O)C3)ccc2n1 (stereo partly drawn) [6-{[(3S)-3-{[2-(2,6-dioxopiperidin-3-yl)-4-fluoro-1-oxo-2,3-dihydro-1H-isoindol-5-yl]oxy}pyrrolidin-1-yl]methyl}quinoline-2-carbonitrile] | 47 | 0.0615 | 1.43 |  |  | 62.465
4 | N#Cc1ccc2cc(CN3CC[C@H](Oc4cc(F)c5c(c4)CN(C4CCC(=O)NC4=O)C5=O)C3)ccc2n1 (stereo partly drawn) [6-{[(3S)-3-{[2-(2,6-dioxopiperidin-3-yl)-7-fluoro-1-oxo-2,3-dihydro-1H-isoindol-5-yl]oxy}pyrrolidin-1-yl]methyl}quinoline-2-carbonitrile] | 100.5 |  | > 10 |  |  | 84.865
5 | N#Cc1ccc2cc(CN3C[C@@H](Oc4ccc5c(c4)CN(C4CCC(=O)NC4=O)C5=O)C(F)(F)C3)ccc2n1 (stereo partly drawn) [6-{[(4R)-4-{[2-(2,6-dioxopiperidin-3-yl)-1-oxo-2,3-dihydro-1H-isoindol-5-yl]oxy}-3,3-difluoropyrrolidin-1-yl]methyl}quinoline-2-carbonitrile] | 30.83 | 0.0202 | 0.0229 |  |  | 22.8
6 | O=C1CC[C@@H](N2Cc3cc(O[C@H]4CCN(Cc5ccc6nc(N7CCOCC7)ncc6c5)C4)ccc3C2=O)C(=O)N1 [(3R)-3-(5-{[(3S)-1-{[2-(morpholin-4-yl)quinazolin-6-yl]methyl}pyrrolidin-3-yl]oxy}-1-oxo-2,3-dihydro-1H-isoindol-2-yl)piperidine-2,6-dione] |  | 0.0463 |  | 31.07 | 0.0238 | 17.43
7 | O=C1CC[C@@H](N2Cc3cc(O[C@H]4CCN(Cc5ccc6nc(C7CCOCC7)ccc6c5)C4)ccc3C2=O)C(=O)N1 [(3R)-3-(5-{[(3S)-1-{[2-(oxan-4-yl)quinolin-6-yl]methyl}pyrrolidin-3-yl]oxy}-1-oxo-2,3-dihydro-1H-isoindol-2-yl)piperidine-2,6-dione] | 33 | 0.00675 | 0.00612 |  |  | 9.677
8 | O=C1CC[C@@H](N2Cc3cc(O[C@H]4CCN(Cc5cc(F)c6nc(C7CCOCC7)ccc6c5)C4)ccc3C2=O)C(=O)N1 [(3R)-3-(5-{[(3S)-1-{[8-fluoro-2-(oxan-4-yl)quinolin-6-yl]methyl}pyrrolidin-3-yl]oxy}-1-oxo-2,3-dihydro-1H-isoindol-2-yl)piperidine-2,6-dione] |  | 0.00949 |  | 32.17 | 0.00219 | 9.2
9 | O=C1CC[C@H](N2Cc3cc(O[C@H]4CCN(Cc5ccc6nc([C@H]7CCOC7)ncc6c5)C4)ccc3C2=O)C(=O)N1 [(3S)-3-(1-oxo-5-{[(3S)-1-({2-[(3R)-oxolan-3-yl]quinazolin-6-yl}methyl)pyrrolidin-3-yl]oxy}-2,3-dihydro-1H-isoindol-2-yl)piperidine-2,6-dione] | 31 | 0.0178 | 0.0146 |  |  | 8.266
10 | O=C1CC[C@H](N2Cc3cc(O[C@H]4CCN(Cc5ccc6ncccc6c5)C4)ccc3C2=O)C(=O)N1 [(3S)-3-(1-oxo-5-{[(3S)-1-[(quinolin-6-yl)methyl]pyrrolidin-3-yl]oxy}-2,3-dihydro-1H-isoindol-2-yl)piperidine-2,6-dione] | 26.52 | 0.00742 | 0.0314 |  |  | 12.265
11 | O=C1CC[C@H](N2Cc3cc(O[C@@H]4CN(Cc5ccc6nc([C@H]7CCOC7)ccc6c5)CC4(F)F)ccc3C2=O)C(=O)N1 [(3S)-3-(5-{[(3R)-4,4-difluoro-1-({2-[(3R)-oxolan-3-yl]quinolin-6-yl}methyl)pyrrolidin-3-yl]oxy}-1-oxo-2,3-dihydro-1H-isoindol-2-yl)piperidine-2,6-dione] |  | 0.0117 |  | 28.37 | 0.00763 | 8.319

Second part, led by results:

Row | 293T-LentiX WEE1-ePL Degradation 4 hr (Ymin) (WEE1; [1]) | DC50 (WEE1) [µM] | EC50 (MKN45 cells; growth inhibition) [µM] | 293T-LentiX WEE1-ePL Degradation 4 hr (Ymin) (WEE1; [2]) | EC50 (MKN45 cells) [µM] | SMILES | MKN45 Cell Prolif. 120 hr (Ymin-Obs) (MKN45 cells)
12 | 27.49 | 0.00305 | 0.00792 |  |  | N#Cc1ccc2cc(CN3CC[C@H](Oc4ccc5c(c4)CN(C4CCC(=O)NC4=O)C5=O)C3)ccc2n1 (stereo partly drawn) [6-{[(3S)-3-{[2-(2,6-dioxopiperidin-3-yl)-1-oxo-2,3-dihydro-1H-isoindol-5-yl]oxy}pyrrolidin-1-yl]methyl}quinoline-2-carbonitrile] | 9.504
13 | 26.545 | 0.00353 | 0.0171 |  |  | NC(=O)c1ccc2cc(CN3CC[C@H](Oc4ccc5c(c4)CN(C4CCC(=O)NC4=O)C5=O)C3)ccc2n1 (stereo partly drawn) [6-{[(3S)-3-{[2-(2,6-dioxopiperidin-3-yl)-1-oxo-2,3-dihydro-1H-isoindol-5-yl]oxy}pyrrolidin-1-yl]methyl}quinoline-2-carboxamide] | 10.71
14 | 33 | 0.00418 | 0.044 |  |  | N#Cc1cnc2ccc(CN3CC[C@H](Oc4ccc5c(c4)CN(C4CCC(=O)NC4=O)C5=O)C3)cc2c1 (stereo partly drawn) [6-{[(3S)-3-{[2-(2,6-dioxopiperidin-3-yl)-1-oxo-2,3-dihydro-1H-isoindol-5-yl]oxy}pyrrolidin-1-yl]methyl}quinoline-3-carbonitrile] | 12.18
15 | 30.5 | 0.00528 | 0.0238 |  |  | N#Cc1ccc2cc(CN3CC[C@H](Oc4cc5c(cc4F)C(=O)N(C4CCC(=O)NC4=O)C5)C3)ccc2n1 (stereo partly drawn) [6-{[(3S)-3-{[2-(2,6-dioxopiperidin-3-yl)-6-fluoro-1-oxo-2,3-dihydro-1H-isoindol-5-yl]oxy}pyrrolidin-1-yl]methyl}quinoline-2-carbonitrile] | 8.55
16 | 26.94 | 0.00355 | 0.0265 |  |  | O=C1CC[C@@H](N2Cc3cc(O[C@H]4CCN(Cc5ccc6ncccc6c5)C4)ccc3C2=O)C(=O)N1 [(3R)-3-(1-oxo-5-{[(3S)-1-[(quinolin-6-yl)methyl]pyrrolidin-3-yl]oxy}-2,3-dihydro-1H-isoindol-2-yl)piperidine-2,6-dione] | 12.45
17 | 35.5 | 0.00259 | 0.00268 |  |  | O=C1CC[C@H](N2Cc3cc(O[C@H]4CCN(Cc5ccc6nc([C@H]7CCOC7)ccc6c5)C4)ccc3C2=O)C(=O)N1 [(3S)-3-(1-oxo-5-{[(3S)-1-({2-[(3R)-oxolan-3-yl]quinolin-6-yl}methyl)pyrrolidin-3-yl]oxy}-2,3-dihydro-1H-isoindol-2-yl)piperidine-2,6-dione] | 8.547
18 | 30 | 0.00213 | 0.00409 |  |  | O=C1CC[C@H](N2Cc3cc(O[C@H]4CCN(Cc5ccc6nc([C@@H]7CCOC7)ccc6c5)C4)ccc3C2=O)C(=O)N1 [(3S)-3-(1-oxo-5-{[(3S)-1-({2-[(3S)-oxolan-3-yl]quinolin-6-yl}methyl)pyrrolidin-3-yl]oxy}-2,3-dihydro-1H-isoindol-2-yl)piperidine-2,6-dione] | 9.489
19 | 40 | 0.00151 | 0.00282 |  |  | O=C1CC[C@H](N2Cc3cc(O[C@H]4CCN(Cc5ccc6nc(N7CCCC7=O)ccc6c5)C4)ccc3C2=O)C(=O)N1 [(3S)-3-(1-oxo-5-{[(3S)-1-{[2-(2-oxopyrrolidin-1-yl)quinolin-6-yl]methyl}pyrrolidin-3-yl]oxy}-2,3-dihydro-1H-isoindol-2-yl)piperidine-2,6-dione] | 8.56
20 |  | 0.00604 |  | 43.18 | 0.0269 | O=C1CC[C@H](N2Cc3cc(O[C@H]4CCN(Cc5ccc6nc(N7CCCC7)ncc6c5)C4)ccc3C2=O)C(=O)N1 [(3S)-3-(1-oxo-5-{[(3S)-1-{[2-(pyrrolidin-1-yl)quinazolin-6-yl]methyl}pyrrolidin-3-yl]oxy}-2,3-dihydro-1H-isoindol-2-yl)piperidine-2,6-dione] | 21.92
